Patent publication US7795296B2, “Crystals of non-natural-type stereoisomer salt of monatin and use thereof” (Ajinomoto Co., Inc., priority 2001, dated 2010)
Like-named read-outs stand apart in the source and are kept apart here. Blank lines part the entries; values can stand above or below the compound they belong to.

Tests used:
panelists = assay: Intensity of sweet taste, tasted against a 5% aqueous sucrose standard solution; format: in vivo; conditions: for Sweetness Intensity / Degree of sweet taste / intensity of sweet taste: as compared with a 5% aqueous solution of sucrose; for Degree of sweet taste / intensity of sweet taste: salt crystals
Method: Intensity of sweet taste (sweetening potency; degree of sweet taste) of the crystals of each stereoisomer obtained can be determined by comparing with a 5% aqueous solution of sucrose, but a method for the determination of intensity of sweet taste is not limited thereto. “Sweet taste” intensity of each stereoisomer obtained was measured by the following method. A 0.05% aqueous solution of each stereoisomer was prepared and diluted to an appropriate extent to prepare an aqueous solution of a sample of a predetermined concentration. Separately, a 5% aqueous solution of sucrose was prepared and used as a standard solution. The diluted aqueous solution of the sample and the standard aqueous sucrose solution were tasted one after another and the sweetness rate was determined from the sample concentration where the intensities of sweetness were noted to be same. Seven panelists performed the evaluation.

[1] = hydrochlorides, reported by K. Nakamura et al., cited from earlier work
[2] = Comparison of thermostability of the crystals (120° C., open vial, decomposed products by HPLC); format: physicochemical; conditions: area % to residual monatin
Method: Comparison of Thermostability of the Crystals.
Each 50 mg of the crystals and the amorphous solid prepared by the above-mentioned methods were placed in a 4-ml vial and preserved (kept) at the temperature of 120° C. At that time, the vial was made in an open state. Each 2 mg of the sample were taken out after retention time of 3 hours, 7 hours and 24 hours and the rate (ratio) of decomposed products were determined by means of HPLC (high-performance liquid chromatography).

[3] = samples crystallized and purified as a sodium salt
[4] = samples prepared by HPLC, purified by ion-exchange resin and freeze-dried as an ammonium salt

Compound: N[C@H](CC(O)(Cc1c[nH]c2ccccc12)C(=O)O)C(=O)O (stereo partly drawn) [(2R, 4S)]
Sweetness Intensity (panelists; [3]): ca. 1300 | Sweetness Intensity (panelists; [4]): ca. 800

Compound: Cl.N[C@@H](C[C@@](O)(Cc1c[nH]c2ccccc12)C(=O)O)C(=O)O [synthetic (2S,4S) monatin substance]
Sweet taste, in words [1]: sweet potency equivalent to that of the a natural specimen of monatin

Compound: NC(CC(O)(Cc1c[nH]c2ccccc12)C(=O)O)C(=O)[O-].[Na+] (centres unmarked) [Example 11]
Degree of sweet taste / intensity of sweet taste (panelists): about 1300 fold

Compound: N[C@@H](C[C@@](O)(Cc1c[nH]c2ccccc12)C(=O)O)C(=O)O [(2S, 4S), (2S,4S)-2-amino-4-carboxy-4-hydroxy-5-(3-indolyl)-pentanoic acid]
Intensity of the sweet taste (panelists; Example 1 ammonium salts, amorphous solid, 5% aqueous sucrose standard, seven panelists): about 300 fold | Sweetness Intensity (panelists; [3]): ca. 50 | Sweetness Intensity (panelists; [4]): ca. 300 | Intensity of sweet taste, comparison in words (panelists; comparison among the four stereoisomers and with reported data): far lower than the data which were reported already | Degree of sweet taste / intensity of sweet taste (panelists): about 50 fold

Rate of Decomposed Product A (%) ([2]; retention time 3 hours): 2.0% | Rate of Decomposed Product B (%) ([2]; retention time 3 hours): 2.1% | Rate of Decomposed Product A (%) ([2]; retention time 7 hours): 3.8% | Rate of Decomposed Product B (%) ([2]; retention time 7 hours): 4.3% | Rate of Decomposed Product A (%) ([2]; retention time 24 hours): 5.3% | Rate of Decomposed Product B (%) ([2]; retention time 24 hours): 11.7%
Compound: N[C@H](CC(O)(Cc1c[nH]c2ccccc12)C(=O)O)C(=O)O (some centres unmarked) [Free substance crystals]

Compound: Cl.N[C@@H](C[C@](O)(Cc1c[nH]c2ccccc12)C(=O)O)C(=O)O
Sweet taste, in words [1]: almost no sweet taste | Sweet taste, in words ([1]; listed as synthetic (2S,4R) monatin substance): slightly sweet taste

Rate of Decomposed Product A (%) ([2]; retention time 3 hours): 1.9% | Rate of Decomposed Product B (%) ([2]; retention time 3 hours): 1.2% | Rate of Decomposed Product A (%) ([2]; retention time 7 hours): 3.8% | Rate of Decomposed Product B (%) ([2]; retention time 7 hours): 2.3% | Rate of Decomposed Product A (%) ([2]; retention time 24 hours): 11.8% | Rate of Decomposed Product B (%) ([2]; retention time 24 hours): 7.6%
Compound: N.N[C@H](C[C@](O)(Cc1c[nH]c2ccccc12)C(=O)O)C(=O)O [Ammonium salt crystals]
